Reference: PubChem BioAssay (NCI)
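1) Cells in 96-well plates. 2) Compound, 48 h, 5 concentrations. 3) Linear interpolation between surrounding doses. 4) Unreached endpoint = highest concentration. TGI denotes the concentration required for complete inhibition of growth.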

What was measured:
Experiment in all cases: NCI tumour cell line growth inhibition, 48 h
OVCAR-5 ovarian = tested on: OVCAR-5 ovarian
SK-MEL-28 melanoma = tested on: SK-MEL-28 melanoma
DMS 273 small cell lung = tested on: DMS 273 small cell lung
SN12C renal = tested on: SN12C renal
RPMI-8226 leukemia = tested on: RPMI-8226 leukemia
A498 renal = tested on: A498 renal
SK-OV-3 ovarian = tested on: SK-OV-3 ovarian
MCF7 breast = tested on: MCF7 breast
M19-MEL melanoma = tested on: M19-MEL melanoma
SN12K1 renal = tested on: SN12K1 renal
NCI-H522 lung = tested on: NCI-H522 lung
SNB-19 CNS = tested on: SNB-19 CNS
SNB-75 CNS = tested on: SNB-75 CNS
HCC-2998 colon = tested on: HCC-2998 colon
NCI-H23 lung = tested on: NCI-H23 lung
IGROV1 ovarian = tested on: IGROV1 ovarian
K-562 leukemia = tested on: K-562 leukemia
P388/ADR leukemia = tested on: P388/ADR leukemia
KM20L2 colon = tested on: KM20L2 colon
HOP-92 NSCLC = tested on: HOP-92 NSCLC
NCI-H226 lung = tested on: NCI-H226 lung
XF 498 CNS = tested on: XF 498 CNS
MOLT-4 leukemia = tested on: MOLT-4 leukemia
CAKI-1 renal = tested on: CAKI-1 renal
HCT-15 colon = tested on: HCT-15 colon
NCI/ADR-RES ovarian = tested on: NCI/ADR-RES ovarian
SF-539 CNS = tested on: SF-539 CNS
HCT-116 colon = tested on: HCT-116 colon
P388 leukemia = tested on: P388 leukemia
OVCAR-8 ovarian = tested on: OVCAR-8 ovarian
DLD-1 colon = tested on: DLD-1 colon
OVCAR-3 ovarian = tested on: OVCAR-3 ovarian
DMS 114 small cell lung = tested on: DMS 114 small cell lung
U251 CNS = tested on: U251 CNS
COLO 205 colon = tested on: COLO 205 colon
UO-31 renal = tested on: UO-31 renal
NCI-H460 lung = tested on: NCI-H460 lung
EKVX NSCLC = tested on: EKVX NSCLC
SF-268 CNS = tested on: SF-268 CNS
OVCAR-4 ovarian = tested on: OVCAR-4 ovarian
LOX IMVI melanoma = tested on: LOX IMVI melanoma
KM12 colon = tested on: KM12 colon
UACC-62 melanoma = tested on: UACC-62 melanoma
A549 NSCLC = tested on: A549 NSCLC
HOP-18 NSCLC = tested on: HOP-18 NSCLC
SK-MEL-5 melanoma = tested on: SK-MEL-5 melanoma
SNB-78 CNS = tested on: SNB-78 CNS
HOP-62 NSCLC = tested on: HOP-62 NSCLC
UACC-257 melanoma = tested on: UACC-257 melanoma
MALME-3M melanoma = tested on: MALME-3M melanoma
SW-620 colon = tested on: SW-620 colon
HT29 colon = tested on: HT29 colon
SK-MEL-2 melanoma = tested on: SK-MEL-2 melanoma
SF-295 CNS = tested on: SF-295 CNS
CCRF-CEM leukemia = tested on: CCRF-CEM leukemia
HL-60(TB) leukemia = tested on: HL-60(TB) leukemia
RXF 393 renal = tested on: RXF 393 renal

Measured: TGI

CCCCCCCCCOCC(COP(=O)([O-])OCC[N+](C)(C)C)OC (configuration not stated)
> 100 µM: all assays above
